Measurements: patent US20250101003A1, “SPIROCYCLIC CAV2.3 ANTAGONISTS” (LARIO THERAPEUTICS LIMITED, priority 2021, published 2025)

target: Cav2.3 (Homo sapiens, UniProt Q15878); assay: Human Cav2.3 channel calcium-influx assay; format: cell-based; conditions: HEK-293 T-Rex/Kir2.1/Cav2.3e-β4-α2δ1 cells, Fluo8 fluorescence, without pluronic acid; read-out: Cav2.3 (pIC50) (converted)
Description: HEK-293 T-Rex cells were transfected with pcDNA3.1-Kir2.1 to generate a stable cell line. After antibiotic selection, the obtained stable pools were analysed using FLIPR^TETRA (membrane potential assay), and a limiting dilution was performed and a HEK-293 T-Rex/Kir2.1 clone was selected. The clone was transfected with pcDNA3.1-Cav2.3e and pBud-Cav-β4-α2δ1 to generate a stable cell line where the Cav2.3e expression is inducible. After antibiotic selection, functional clone pool analysis and two successive limiting dilutions, the final clone underwent a qPCR analysis and a biophysical and pharmacological validation using patch-clamp.
A compound plate, containing 10 test compounds in eight-points dose response with n=4, was prepared. Test compounds dose response curves were prepared in automated fashion in 100% DMSO at CyBio Felix and starting from a stock solution in 100% DMSO; a defined volume was serially moved into destination wells pre-filled with the desired DMSO volume; stock solution concentration volumes were dependent on the final compounds concentrations to be tested and the final DMSO content used in the assay. For the assay test compounds dose response curves ranged from 30 μM and half log dilution with 0.3% final DMSO. In order to obtain the 8-points dose response curve all the concentrations were created by starting from a 10 mM DMSO stock solution and then moving 9.5 μL into a destination well pre-filled with 20.5 μL of 100% DMSO and repeating this step seven times. This initial step was done into 96 MTP plates, 10 compounds/plate. One 384 MTP was then reformatted to contain all the 10 compounds at 8 concentrations, quadruplicate data points. This so obtained 384 MTP compound plate served as source plate in a “mother to child” process with a CyBi®-Well dispenser in which 0.7 μL of compounds were moved into a destination plate pre-filled with 57.6 μL of Tyrode's buffer 0 mM K+, thus obtaining 4× concentrated compounds solution. In columns 1-2 and 23-24 the control wells were added. Both “source” compound plate and “destination” compound plate were barcoded and a relationship between the two plates was thus generated.
The day before the experiment, cells were detached by gentle wash with DPBS, followed by 5 min incubation at 37° C. with Trypsin solution. Detached cells were diluted with OptiMEM+Doxycycline at 0.2 μg/mL, counted and plated in Poly-D-Lysine coated black/clear bottom (15.000 c/well in 20 μl/well) by the use of a MATRIX WellMate dispenser. Plates were placed into a humidified incubator at 37° C. with 5% CO2 until the experimental day. 24 h after seeding 10 μL/well of 1.5× Fluo8 NW dye solution prepared in Tyrode's buffer 0 mM K^+ were added on top of the seeding medium. Cell plates were incubated for 40-60 min at RT in the dark. We then Injected off-line 10 μL/well of test compounds and controls 4× concentrated in Tyrode's Buffer 0 mM K+ with the CyBi®-Well instrument. Cell plates were incubated 3 minutes at RT. Finally, we injected 20 μL/well of 3× concentrated activator solution (K20-Na130-Ca2 buffer: 20 mM KCl, 130 mM NaCl, 2 mM CaCl2, 10 mM HEPES, 10 mM Glucose, final concentrations, prepared starting from “KO-Na150-Ca2” and “K150-Na0-Ca2” buffers) at FDSS7000EX instrument and read emitted fluorescence for 130 seconds.
Data analysis was performed with Genedata Screener® software and reported compounds activity as % effect in relation to the normalization standards. The Kinetic Response Value (KRV) is calculated as follows:
KRV=Maximal fluorescence recorded from second 5 to second 130 minus baseline fluorescence, computed as average from second 1 to second 2, of the kinetic trace. The KRV was normalized versus Neutral Controls and Inhibitor Controls in order to obtain the Activity[%] for each well. […] Therefore, the compound activity values were scaled (based on the two references) to a common range (two-point normalization). […]

Chain of Cav2.3 (Q15878 1-747 limits assumed): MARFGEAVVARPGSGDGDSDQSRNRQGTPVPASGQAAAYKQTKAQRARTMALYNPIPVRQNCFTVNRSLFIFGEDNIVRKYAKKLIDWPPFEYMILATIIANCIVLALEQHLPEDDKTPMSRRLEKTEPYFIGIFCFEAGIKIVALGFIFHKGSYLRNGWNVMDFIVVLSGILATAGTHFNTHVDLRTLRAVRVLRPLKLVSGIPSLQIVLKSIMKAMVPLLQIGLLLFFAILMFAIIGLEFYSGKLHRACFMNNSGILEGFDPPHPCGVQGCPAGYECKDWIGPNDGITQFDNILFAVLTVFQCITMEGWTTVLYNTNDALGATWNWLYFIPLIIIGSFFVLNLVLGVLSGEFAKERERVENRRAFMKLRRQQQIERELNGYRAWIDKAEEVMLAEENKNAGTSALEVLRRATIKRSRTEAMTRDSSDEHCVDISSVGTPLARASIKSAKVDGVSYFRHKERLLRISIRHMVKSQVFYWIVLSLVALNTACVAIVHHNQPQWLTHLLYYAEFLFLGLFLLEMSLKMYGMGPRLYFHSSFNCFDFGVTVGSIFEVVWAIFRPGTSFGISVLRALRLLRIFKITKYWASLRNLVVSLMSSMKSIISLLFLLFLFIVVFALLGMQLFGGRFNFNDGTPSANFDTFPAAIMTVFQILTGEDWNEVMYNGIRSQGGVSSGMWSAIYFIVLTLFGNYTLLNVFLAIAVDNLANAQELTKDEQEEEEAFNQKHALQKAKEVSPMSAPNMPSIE
Chain of Cav2.3 (Q15878 1126-2313 limits assumed): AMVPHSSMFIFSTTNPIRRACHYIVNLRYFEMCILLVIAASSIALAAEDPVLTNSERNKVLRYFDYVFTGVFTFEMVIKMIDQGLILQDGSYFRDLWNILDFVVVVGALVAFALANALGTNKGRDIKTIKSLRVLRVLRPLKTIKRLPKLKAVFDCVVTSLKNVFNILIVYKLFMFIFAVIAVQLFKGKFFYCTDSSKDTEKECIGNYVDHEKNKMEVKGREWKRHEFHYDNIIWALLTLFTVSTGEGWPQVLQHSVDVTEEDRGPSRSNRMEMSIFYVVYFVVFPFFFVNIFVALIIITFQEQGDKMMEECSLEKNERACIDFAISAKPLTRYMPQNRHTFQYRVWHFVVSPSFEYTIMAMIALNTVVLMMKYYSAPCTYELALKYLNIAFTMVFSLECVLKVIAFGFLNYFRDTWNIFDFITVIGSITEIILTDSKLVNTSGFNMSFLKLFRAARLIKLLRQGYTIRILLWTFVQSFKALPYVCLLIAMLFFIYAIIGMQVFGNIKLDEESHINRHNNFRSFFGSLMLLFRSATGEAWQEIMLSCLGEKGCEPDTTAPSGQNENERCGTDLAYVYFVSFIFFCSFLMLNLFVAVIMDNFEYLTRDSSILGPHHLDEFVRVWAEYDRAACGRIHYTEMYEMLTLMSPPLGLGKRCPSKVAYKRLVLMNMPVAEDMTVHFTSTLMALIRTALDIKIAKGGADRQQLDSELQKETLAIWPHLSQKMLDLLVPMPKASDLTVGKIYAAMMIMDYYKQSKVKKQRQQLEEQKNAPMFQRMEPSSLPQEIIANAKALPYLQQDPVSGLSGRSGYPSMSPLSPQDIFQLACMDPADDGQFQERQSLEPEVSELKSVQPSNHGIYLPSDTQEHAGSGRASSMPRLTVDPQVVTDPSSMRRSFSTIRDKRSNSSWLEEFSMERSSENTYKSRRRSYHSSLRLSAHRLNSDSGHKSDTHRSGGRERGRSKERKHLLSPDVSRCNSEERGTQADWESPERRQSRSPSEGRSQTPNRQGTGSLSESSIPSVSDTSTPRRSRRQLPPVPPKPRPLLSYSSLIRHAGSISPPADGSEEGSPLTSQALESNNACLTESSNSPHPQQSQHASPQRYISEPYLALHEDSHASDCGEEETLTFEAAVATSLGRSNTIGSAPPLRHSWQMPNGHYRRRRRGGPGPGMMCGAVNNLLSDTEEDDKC

| SMILES | IC50 [µM] |
| --- | --- |
| Cc1nc(C)c(S(=O)(=O)N2CC3(CCC3)CC2C)s1 (single isomer, unassigned) [Example 107, 2,4-dimethyl-5-((7-methyl-6-azaspiro[3.4]octan-6-yl)sulfonyl)thiazole] | 6.76 |
| CC1CC2(CCC2)CN1S(=O)(=O)Cc1ccccc1 (stereo not shown) [Example 2, 6-(Benzylsulfonyl)-7-methyl-6-azaspiro[3.4]octane] | 4.27 |
| CC1CC2(CCC2)CN1S(=O)(=O)c1nccn1C (stereo not shown) [Example 3, 7-Methyl-6-((1-methyl-1H-imidazol-2-yl)sulfonyl)-6-azaspiro[3.4]octane] | 30.2 |
| CC1CC2(CCC2)CN1S(=O)(=O)c1ccc2c(c1)OCCCO2 (stereo not shown) [Example 4, 6-((3,4-Dihydro-2H-benzo[b][1,4]dioxepin-7-yl)sulfonyl)-7-methyl-6-azaspiro[3.4]octane] | 4.17 |
| CC1CC2(CCC2)CN1S(=O)(=O)c1ccc2c(c1)OCCO2 (stereo not shown) [Example 5, 6-((2,3-Dihydrobenzo[b][1,4]dioxin-6-yl)sulfonyl)-7-methyl-6-azaspiro[3.4]octane] | 2.95 |
| CC1CC2(CCC2)CN1S(=O)(=O)c1ccc(C#N)s1 (stereo not shown) [Example 8, 5-((7-Methyl-6-azaspiro[3.4]octan-6-yl)sulfonyl)thiophene-2-carbonitrile] | 2.57 |
| CC1CC2(CCC2)CN1S(=O)(=O)c1ccncc1 (stereo not shown) [Example 11, 7-Methyl-6-(pyridin-4-ylsulfonyl)-6-azaspiro[3.4]octane] | 3.24 |
| CC1CC2(CCC2)CN1S(=O)(=O)c1ncccn1 (stereo not shown) [Example 14, 7-Methyl-6-(pyrimidin-2-ylsulfonyl)-6-azaspiro[3.4]octane] | 46.8 |
| CC1CC2(CCC2)CN1S(=O)(=O)c1ccc2ccoc2c1 (stereo not shown) [Example 15, 6-(Benzofuran-6-ylsulfonyl)-7-methyl-6-azaspiro[3.4]octane] | 1.86 |
| CC1CC2(CCC2)CN1S(=O)(=O)c1ccc2c(c1)CN(C(=O)C(F)(F)F)CC2 (stereo not shown) [Example 18, 2,2,2-Trifluoro-1-(7-((7-methyl-6-azaspiro[3.4]octan-6-yl)sulfonyl)-3,4-dihydroisoquinolin-2(1H)-yl)ethan-1-one] | 2.45 |
| CC1CC2(CCC2)CN1S(=O)(=O)c1ccc2c(c1)CCN(Cc1ccccc1)C2 (stereo not shown) [Example 25, 2-Benzyl-6-((7-methyl-6-azaspiro[3.4]octan-6-yl)sulfonyl)-1,2,3,4-tetrahydroisoquinoline] | 2.95 |
| CC1CC2(CCC2)CN1S(=O)(=O)c1ccc2c(c1)CN(c1ccccc1)CC2 (stereo not shown) [Example 29, 7-((7-Methyl-6-azaspiro[3.4]octan-6-yl)sulfonyl)-2-phenyl-1,2,3,4-tetrahydroisoquinoline] | 4.79 |
| CCC1CC2(CCC2)CN1S(=O)(=O)c1ccc2c(c1)CN(C(=O)C(C)C)CC2 (stereo not shown) [Example 34, 1-(7-((7-Ethyl-6-azaspiro[3.4]octan-6-yl)sulfonyl)-3,4-dihydroisoquinolin-2(1H)-yl)-2-methylpropan-1-one] | 1.1 |
| CCC1CC2(CCC2)CN1S(=O)(=O)c1ccc2ccsc2c1 (stereo not shown) [Example 35, 6-(Benzo[b]thiophen-6-ylsulfonyl)-7-ethyl-6-azaspiro[3.4]octane] | 3.8 |
| CC1CC2(CCC2)CN1S(=O)(=O)c1ccco1 (stereo not shown) [Example 36, 6-(Furan-2-ylsulfonyl)-7-methyl-6-azaspiro[3.4]octane] | 5.25 |
| CC1CC2(CCC2)CN1S(=O)(=O)c1cnccn1 (stereo not shown) [Example 39, 7-methyl-6-(pyrazin-2-ylsulfonyl)-6-azaspiro[3.4]octane] | 10.7 |
| CC(=O)Nc1nnc(S(=O)(=O)N2CC3(CCC3)CC2C)s1 (stereo not shown) [Example 40, N-(5-((7-methyl-6-azaspiro[3.4]octan-6-yl)sulfonyl)-1,3,4-thiadiazol-2-yl)acetamide] | 8.32 |

| SMILES | IC50 [µM] |
| --- | --- |
| CC1CC2(CCC2)CN1S(=O)(=O)c1cccc2c1OC(F)(F)O2 (stereo not shown) [Example 41, 6-((2,2-Difluorobenzo[d][1,3]dioxol-4-yl)sulfonyl)-7-methyl-6-azaspiro[3.4]octane] | 8.32 |
| O=S(=O)(c1cccs1)N1CC2(CCC2)CC1CO (stereo not shown) [Example 42, (6-(Thiophen-2-ylsulfonyl)-6-azaspiro[3.4]octan-7-yl)methanol] | 24.5 |
| COCC1CC2(CCC2)CN1S(=O)(=O)c1cccs1 (stereo not shown) [Example 43, 7-(Methoxymethyl)-6-(thiophen-2-ylsulfonyl)-6-azaspiro[3.4]octane] | 10.2 |
| CC1CC2(CCC2)CN1S(=O)(=O)c1cc(-c2ccccc2)cs1 (stereo not shown) [Example 44, 7-Methyl-6-((4-phenylthiophen-2-yl)sulfonyl)-6-azaspiro[3.4]octane] | 6.76 |
| CC1CC2(CCC2)CN1S(=O)(=O)c1ccccc1 (stereo not shown) [Example 45, 7-Methyl-6-(phenylsulfonyl)-6-azaspiro[3.4]octane] | 3.39 |
| CC1CC2(CCC2)CN1S(=O)(=O)c1ccccn1 (stereo not shown) [Example 48, 7-Methyl-6-(pyridin-2-ylsulfonyl)-6-azaspiro[3.4]octane] | 15.8 |
| CC1(C)CC2(CCC2)CN1S(=O)(=O)c1ccsc1 [Example 49, 7,7-Dimethyl-6-(thiophen-3-ylsulfonyl)-6-azaspiro[3.4]octane] | 3.89 |
| CCC1CC2(CCC2)CN1S(=O)(=O)c1ccc2c(c1)OC(F)(F)O2 (stereo not shown) [Example 50, 6-((2,2-Difluorobenzo[d][1,3]dioxol-5-yl)sulfonyl)-7-ethyl-6-azaspiro[3.4]octane] | 9.33 |
| CCc1nc2cc(S(=O)(=O)N3CC4(CCC4)CC3CC)ccc2o1 (stereo not shown) [Example 51, 2-Ethyl-5-((7-ethyl-6-azaspiro[3.4]octan-6-yl)sulfonyl)benzo[d]oxazole] | 2.75 |
| CC(C)C(=O)N1Cc2ccc(S(=O)(=O)N3CC4(CCC4)CC3C)cc2C1 (stereo not shown) [Example 52, 2-methyl-1-(5-((7-methyl-6-azaspiro[3.4]octan-6-yl)sulfonyl)isoindolin-2-yl)propan-1-one] | 2 |
| Cc1ccc(S(=O)(=O)N2CC3(CCC3)CC2C)o1 (stereo not shown) [Example 53, 7-Methyl-6-((5-methylfuran-2-yl)sulfonyl)-6-azaspiro[3.4]octane] | 4.9 |
| CC1CC2(CCC2)CN1S(=O)(=O)c1cc2oc(=O)[nH]c2cc1Cl (stereo not shown) [Example 56, 5-Chloro-6-((7-methyl-6-azaspiro[3.4]octan-6-yl)sulfonyl)benzo[d]oxazol-2(3H)-one] | 8.32 |
| CC1CC2(CCC2)CN1S(=O)(=O)c1ccc2[nH]c(=O)[nH]c2c1 (stereo not shown) [Example 59, 5-((7-Methyl-6-azaspiro[3.4]octan-6-yl)sulfonyl)-1,3-dihydro-2H-benzo[d]imidazol-2-one] | 11.2 |
| CC1CCC2(CCC2)CN1S(=O)(=O)c1cccs1 (stereo not shown) [Example 60, 7-Methyl-6-(thiophen-2-ylsulfonyl)-6-azaspiro[3.5]nonane] | 4.79 |
| CCC1CC2(CCC2)CN1S(=O)(=O)c1ccc2c(c1)S(=O)(=O)CC2 (stereo not shown) [Example 61, 6-((7-Ethyl-6-azaspiro[3.4]octan-6-yl)sulfonyl)-2,3-dihydrobenzo[b]thiophene 1,1-dioxide] | 1.78 |
| CCc1ncsc1S(=O)(=O)N1CC2(CCC2)CC1C (stereo not shown) [Example 64, 4-Ethyl-5-((7-methyl-6-azaspiro[3.4]octan-6-yl)sulfonyl)thiazole] | 3.72 |
| CC1CC2(CCC2)CN1S(=O)(=O)c1ccc2c(c1)COC2 (stereo not shown) [Example 65, 6-((1,3-Dihydroisobenzofuran-5-yl)sulfonyl)-7-methyl-6-azaspiro[3.4]octane] | 3.98 |
